{"source": "patent US20230190851A1", "about": "“PLANT COMPOUNDS FOR TREATING ALZHEIMER'S DISEASE” (RRW B.V., priority 2020, published 2023)", "system": "C. elegans nematode strain with inducible amyloid-β accumulation (CL4176)", "test": "Alzheimer's disease paralysis assay, C. elegans strain with inducible amyloid-β accumulation", "assay_type": "in vivo", "settings": "strain CL4176, heat shock 25° C., counted approximately every 24 h; combination effect after 71 h, persisted for 95 h", "excerpt": "These strains accumulate amyloid-β peptides that form plaques in the nematodes and lead to paralysis of the animals. In certain strains, such as strain CL4176, Aβ accumulation occurs only in response to heat shock. Thus, the Alzheimer's disease pattern is inducible in these strains. The number of paralyzed nematodes after a certain period of time following induction of Aβ accumulation indicates the extent of Alzheimer's disease. Thus, the effect of certain substances to which the nematodes are exposed on the number of paralyzed animals is a measure of the anti-Alzheimer effect of these substances.\nNematodes of strain CL4176 were synchronized at the young larval stage and allowed to grow to the L4 stage on normal growth medium for 72 h at 16° C. Then the nematodes were exposed to the test substance and the temperature was increased to 25° C. This heat shock induced Aβ accumulation, simulating the onset of Alzheimer's disease. Approximately every 24 h, the number of animals that were still mobile and those that were paralyzed as a result of Aβ accumulation was determined."}
{"smiles": "C=C(C)[C@@H]1CCC(C)=C[C@H]1c1c(O)cc(CCCCC)cc1O", "note": "[CBD, cannabidiol]", "values": [{"measurement": "number of mobile / paralyzed animals after induction of Aβ accumulation", "value": "only little effect"}]}
